Biological target: T1, purified rabbit bone collagenase (Oryctolagus cuniculus, UniProt P13943)
T1 construct: from tissue; host or cells: rabbit bone
T1 sequence (P13943 99-468): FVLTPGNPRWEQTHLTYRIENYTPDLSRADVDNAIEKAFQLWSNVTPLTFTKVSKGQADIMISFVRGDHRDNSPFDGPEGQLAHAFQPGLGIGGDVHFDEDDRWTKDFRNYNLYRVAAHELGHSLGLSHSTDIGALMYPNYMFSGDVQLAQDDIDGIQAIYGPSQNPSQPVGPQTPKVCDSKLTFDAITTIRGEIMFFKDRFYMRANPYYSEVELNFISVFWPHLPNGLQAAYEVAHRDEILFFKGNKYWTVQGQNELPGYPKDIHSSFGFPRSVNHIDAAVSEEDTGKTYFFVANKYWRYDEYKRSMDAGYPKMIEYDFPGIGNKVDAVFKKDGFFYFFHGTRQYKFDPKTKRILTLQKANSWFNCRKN
Test: Collagenase inhibitor assay (14C-acetylated rat skin Type I collagen as substrate)
Type: biochemical
Conditions: 5-15 min preincubation at 37° C., 37° C. overnight, read-out: IC50 (amount of compound which inhibits a known amount of enzyme by 50%)
Method: The test is performed essentially as in Cawston and Barrett Anal. Biochem. 99, 340-345 (1979). Compounds for testing are dissolved in methanol and added to purified rabbit bone collagenase in buffer. After a 5-15 min incubation at 37° C., the assay tubes are cooled to 4° C. and ^14 C-acetylated rat skin Type I collagen is added. The assay tubes are incubated at 37° C. overnight. The ^14 C-collagen forms insoluble fibrils which are the substrate for the enzyme.
To terminate the assay, the assay tubes are spun at 12000 rpm for 15 min. Undigested ^14 C-collagen is pelleted, digested ^14 C-collagen is found as soluble peptides in the supernatant. A sample of the supernatant is taken for liquid scintillation counting.

Structure (SMILES) | IC50 [µM]
CNC(=O)[C@H](Cc1ccc(OC)cc1)NC(=O)C(CC(C)C)C(S)CC(=O)OC (single isomer, unassigned) [2 A] | 0.0039 to 0.0064
CNC(=O)[C@H](Cc1ccc(OC)cc1)NC(=O)C(CC(C)C)C(S)CC(=O)OC (single isomer, unassigned) [2 B] | 0.072
CNC(=O)[C@H](Cc1ccc(OC)cc1)NC(=O)C(CC(C)C)C(S)CC(=O)OCc1ccccc1 (single isomer, unassigned) [4 C] | 0.23
CNC(=O)[C@H](Cc1ccc(OC)cc1)NC(=O)C(CC(C)C)C(S)CC(=O)OCc1ccccc1 (single isomer, unassigned) [4 D] | 12.6
CNC(=O)[C@H](Cc1ccccc1)NC(=O)C(CC(C)C)C(S)CC(=O)OC (single isomer, unassigned) [10 A] | 0.0083

The remaining lines, values ahead:

IC50 [µM] | Structure (SMILES)
0.1 | CNC(=O)[C@H](Cc1ccc(OC)cc1)NC(=O)C(CC(C)C)C(S)CC(=O)OC (mixture of isomers) [2 mixture of diastereoisomers]
0.031 | CNC(=O)[C@H](Cc1ccc(OC)cc1)NC(=O)C(CC(C)C)C(S)CC(=O)OCc1ccccc1 (single isomer, unassigned) [4 A]
0.27 | CNC(=O)[C@H](Cc1ccc(OC)cc1)NC(=O)C(CC(C)C)C(S)CC(=O)OCc1ccccc1 (single isomer, unassigned) [4 B]
0.0047 to 0.014 | CNC(=O)CC(S)C(CC(C)C)C(=O)N[C@@H](Cc1ccc(OC)cc1)C(=O)NC (single isomer, unassigned) [8 A]

From patent publication US4937243A, “Thiol carboxylic acid derivatives and their use as colagenase inhibitors” (Beecham Group p.l.c., priority 1986, dated 1990)
